# According to patent US20140239525A1, “INHALABLE PHARMACEUTICAL COMPOSITIONS” (BOARD OF REGENTS, UNIVERSITY OF TEXAS SYSTEM, priority 2011, published 2014):
# Where two headings read alike, the source gives them in different places.
# Assays:
# [1] = solubilized oral formulations, cited from earlier work
# [2] = system: mice; experiment: Survival and health of mice after aerosol dosing; assay type: in vivo; conditions: 48 hours after the end of the nebulization event
# Description: Pulmonary Delivery to Mice: Animals were caged in groups of 4 and maintained on a normal rodent chow diet with free access to water. Prior to dosing, CD-1@ IGS ICR mice (Charles River Laboratories International, Inc., Wilmington, Mass., USA) were individually acclimatized for approximately 10 minutes per day for 3 days into restraint tubes, restricted by an anterior nose insert and a posterior holder. The dosing apparatus was placed inside a fume hood to collect escaping aerosol containing drug. To avoid influence from the airflow provided by the fume hood, an erlenmeyer container was placed at the end of the tubing system as a buffer. The airflow rate was set to 1 L/min to ensure proper drug aerosolization into the nose-only chamber (internal volume: 230 mL; diameter: 3.8 cm; length: 20.3 cm) using an Aeroneb Pro® vibrating-mesh nebulizer (Aerogen, Galway, Ireland). Following preparation, all formulations (saline control, DMPC, DPPC, and DSPC) were dosed for 15 minutes to mice weighing from 23 to 33 g each, at time of dosing. Each single-dose studied group consisted of thirty-six male animals. At each time point (0.5, 1, 3, 8, 24, and 48 hours after the end of the aerosolization event) six animals randomly selected from different dosing events of the same formulation were sacrificed by narcosis with carbon dioxide. […]
# [3] = Particle size distribution by laser diffraction (LD); assay type: physicochemical
# Description: Laser Diffraction (LD): Bulk CoQ10 powder was dispersed in 20% (v/v) 1,3-propanediol in deionized water for analysis of particle size distribution. This dispersed sample was then added to a small cell apparatus in a Malvern Mastersizer S® instrument (Malvern Instruments, Worcestershire, UK) equipped with a 300 mm lens until 5-10% obscuration was attained. The internal phase and dispersant refractive indexes were 1.45 and 1.33, respectively.
# (§1) Particle Size Distribution: Particle size distribution testing of the dispersed formulations was performed with LD using a wet sample dispersion unit stirring at 1,000 rpm coupled to a Malvern Spraytec® (Malvern Instruments, Worcestershire, UK) equipped with a 300 mm lens. The dispersed formulations were added to distilled water (dispersant) until approximately 5% laser obscuration was attained. The internal phase and dispersant refractive indexes were set as 1.45 and 1.33, respectively. A timed measurement was performed for 45 seconds with 1 second sampling periods (a total of 45 measurements). Results are presented as Dv(X) and span, where X is the cumulative percentile of particles under the referred size (e.g. Dv(50) corresponds to the median volume of the particles). Span is a measurement of particle size distribution calculated as [Dv(90)-Dv(10)]/Dv(50)]. A higher span indicates a more polydisperse particle size distribution.
# as §1, with “5%” for “5% laser”, “were” for “were set as”, “45 data acquisition periods).” for “45 measurements).”, “is the” for “is a”, “as [Dv(90)−Dv(10)]/Dv(50)].” for “as [Dv(90)-Dv(10)]/Dv(50)].”
# [4] = system: IL-12; experiment: Inflammatory response: IL-12 in bronchoalveolar lavage supernatant by ELISA; assay type: in vivo, mice
# Description: The inflammatory response to the administration of hydrophobic bioactive agents (e.g., as discussed in connection with Example 1-3 above) was measured. Surgery is performed on sacrificed mice to expose the pleural cavity and trachea at the throat. […] An aliquot (about 0.75 mL) of phosphate buffered saline is instilled through the cannula into the lungs and removed to wash the bronchial and alveolar surfaces. This process is repeated for a total of three washes. The phosphate buffered saline containing cells is placed into centrifuge vials and centrifuged at about 3000 rpm (MiniSpin Plus, Eppendorf International, Hamburg, Del.). The supernatant is removed leaving the collected cells in the pellet. The supernatant from the BAL (Bronchoalveolar Lavage) is analyzed by enzyme-linked immunosorbent assay (ELISA) for IL-12 elevation (n=2 per sample tested).
# [5] = CoQ10 in lung tissue of mice after 15 min nose-only aerosol dosing; assay type: in vivo
# Description: Pulmonary Delivery to Mice: Animals were caged in groups of 4 and maintained on a normal rodent chow diet with free access to water. Prior to dosing, CD-1@ IGS ICR mice (Charles River Laboratories International, Inc., Wilmington, Mass., USA) were individually acclimatized for approximately 10 minutes per day for 3 days into restraint tubes, restricted by an anterior nose insert and a posterior holder. The dosing apparatus was placed inside a fume hood to collect escaping aerosol containing drug. To avoid influence from the airflow provided by the fume hood, an erlenmeyer container was placed at the end of the tubing system as a buffer. The airflow rate was set to 1 L/min to ensure proper drug aerosolization into the nose-only chamber (internal volume: 230 mL; diameter: 3.8 cm; length: 20.3 cm) using an Aeroneb Pro® vibrating-mesh nebulizer (Aerogen, Galway, Ireland). Following preparation, all formulations (saline control, DMPC, DPPC, and DSPC) were dosed for 15 minutes to mice weighing from 23 to 33 g each, at time of dosing. Each single-dose studied group consisted of thirty-six male animals. At each time point (0.5, 1, 3, 8, 24, and 48 hours after the end of the aerosolization event) six animals randomly selected from different dosing events of the same formulation were sacrificed by narcosis with carbon dioxide. As part of the collection process, blood was withdrawn by cardiac puncture, lungs were harvested, and a nasal wash was performed. The samples were extracted for analysis with liquid chromatography coupled with tandem mass spectrometry (LC/MS/MS).
# Analysis of CoQ10 Levels in Lung Tissue, Blood Plasma, and Nasal Cavity: For each experiment, CoQ10 levels were determined after liquid extraction using liquid chromatography coupled with tandem mass spectrometry (LC-MS/MS). The methods were validated in the drug concentration range of 0.1 to 600 μg/mL. The general sample preparation protocols for lung tissue, blood plasma, and nasal cavity analysis are described below. […]
# [6] = after ball milling for 18 hours
# [7] = previous studies, same nebulizer
compound,measurement,setting,value
"COC1=C(OC)C(=O)C(C/C=C(\C)CC/C=C(\C)CC/C=C(\C)CC/C=C(\C)CC/C=C(\C)CC/C=C(\C)CC/C=C(\C)CC/C=C(\C)CC/C=C(\C)CCC=C(C)C)=C(C)C1=O [CoQ10, Coenzyme Q10]",highest plasma concentration of CoQ10 reported in the literature,[1]; approximate conversion,approximately 9 μg/mL
same,highest plasma concentration of CoQ10 reported in the literature,[1],10.7 µmol/L
same,survival and health signs,[2],all mice were alive and presenting healthy signs
same,Dv(50),[3]; [6],29.87 μm
same,span,[3]; [6],2.282
same,particle size,[3]; bulk CoQ10 powder,30 μm
same,Dv(50),[3]; bulk material,29.87 μm
same,span,[3]; bulk material,2.051
same,IL-12 levels in BAL supernatant,[4]; ELISA,not associated with a rise in IL-12 levels
same,lung inflammation,"[4]; mouse, in vivo",does not cause lung inflammation
same,time CoQ10 stays in the lungs at relatively high concentrations,"[5]; mice, after 15 min aerosol",up to 48 hours
same,Cmax relative to dispersions of cyclosporine A,[5]; [7],≤ 75 fold
same,Cmax relative to dispersions of itraconazole,[5]; [7],≤ 165 fold
